The source made the active and inactive calls. The rule behind the calls is not given here.
Test system: rodent lifetime carcinogenesis bioassay, tumor incidence TD50
Test: chronic cancer bioassays in animals – CPDB, compiled studies (AID 1745844)
[1] = rat, strain F344/DuCrj, males, in feed, site: esophagus, lesion: one or several types, types not named, dosed 52 weeks, study length 52 weeks
[2] = rat, strain F344/DuCrj, males, in feed, site: forestomach, lesion: one or several types, types not named, dosed 52 weeks, study length 52 weeks
[3] = rat, strain F344/DuCrj, males, in feed, site: liver, lesion: one or several types, types not named, dosed 52 weeks, study length 52 weeks

Nc1ccc(N)c2c1C(=O)c1c(N)ccc(N)c1C2=O
TD50 (mouse, strain B6C3F1, females, in feed, site: liver, lesion: hepatocellular adenoma, dosed 103 weeks, study length 106 weeks): 150 mg/kg/day (inactive)
TD50 (mouse, strain B6C3F1, females, in feed, site: lung, lesion: alveolar/bronchiolar adenoma + alveolar/bronchiolar carcinoma, dosed 103 weeks, study length 106 weeks): 9310 mg/kg/day
TD50 (mouse, strain B6C3F1, males, in feed, site: any site (literature study), lesion: several types, types named in the paper, dosed 104 weeks, study length 105 weeks): 1290 mg/kg/day
TD50 (mouse, strain B6C3F1, males, in feed, site: liver, lesion: hepatocellular adenoma + hepatocellular carcinoma + neoplastic nodule, dosed 104 weeks, study length 105 weeks): 534 mg/kg/day
TD50 (mouse, strain B6C3F1, males, in feed, site: liver, lesion: hepatocellular adenoma + hepatocellular carcinoma, dosed 104 weeks, study length 105 weeks): 534 mg/kg/day
TD50 (mouse, strain B6C3F1, males, in feed, site: lung, lesion: alveolar/bronchiolar adenoma + alveolar/bronchiolar carcinoma, dosed 104 weeks, study length 105 weeks): 701 mg/kg/day
TD50 (mouse, strain B6C3F1, males, in feed, site: lung, lesion: alveolar/bronchiolar adenoma, dosed 104 weeks, study length 105 weeks): 925 mg/kg/day
TD50 (rat, strain Fischer 344, females, in feed, site: any site (literature study), lesion: several types, types named in the paper, dosed 103 weeks, study length 104 weeks): 130 mg/kg/day
TD50 (rat, strain Fischer 344, females, in feed, site: pancreatic islets, lesion: islet-cell carcinoma, dosed 103 weeks, study length 104 weeks): 291 mg/kg/day
TD50 (rat, strain Fischer 344, females, in feed, site: pituitary gland + pancreatic islets, lesion: carcinoma, NOS + islet-cell carcinoma, dosed 103 weeks, study length 104 weeks): 323 mg/kg/day
TD50 (rat, strain Fischer 344, females, in feed, site: urinary bladder, lesion: leiomyoma, dosed 103 weeks, study length 104 weeks): 1540 mg/kg/day
TD50 (rat, strain Fischer 344, females, in feed, site: urinary bladder, lesion: leiomyosarcoma + leiomyoma + squamous-cell carcinoma + squamous-cell papilloma + transitional-cell carcinoma + transitional-cell p, dosed 103 weeks, study length 104 weeks): 131 mg/kg/day
TD50 (rat, strain Fischer 344, females, in feed, site: urinary bladder, lesion: leiomyosarcoma + leiomyoma, dosed 103 weeks, study length 104 weeks): 250 mg/kg/day
TD50 (rat, strain Fischer 344, females, in feed, site: urinary bladder, lesion: leiomyosarcoma, dosed 103 weeks, study length 104 weeks): 294 mg/kg/day
TD50 (rat, strain Fischer 344, females, in feed, site: urinary bladder, lesion: squamous-cell carcinoma + squamous-cell papilloma, dosed 103 weeks, study length 104 weeks): 664 mg/kg/day
TD50 (rat, strain Fischer 344, females, in feed, site: urinary bladder, lesion: squamous-cell carcinoma, dosed 103 weeks, study length 104 weeks): 1580 mg/kg/day
TD50 (rat, strain Fischer 344, females, in feed, site: urinary bladder, lesion: squamous-cell papilloma, dosed 103 weeks, study length 104 weeks): 1020 mg/kg/day
TD50 (rat, strain Fischer 344, females, in feed, site: urinary bladder, lesion: transitional-cell carcinoma + transitional-cell papilloma, dosed 103 weeks, study length 104 weeks): 198 mg/kg/day
TD50 (rat, strain Fischer 344, females, in feed, site: urinary bladder, lesion: transitional-cell carcinoma, dosed 103 weeks, study length 104 weeks): 307 mg/kg/day
TD50 (rat, strain Fischer 344, females, in feed, site: urinary bladder, lesion: transitional-cell papilloma, dosed 103 weeks, study length 104 weeks): 317 mg/kg/day
TD50 (rat, strain Fischer 344, males, in feed, site: any site (literature study), lesion: several types, types named in the paper, dosed 103 weeks, study length 104 weeks): 39.3 mg/kg/day
TD50 (rat, strain Fischer 344, males, in feed, site: pancreatic islets, lesion: islet-cell adenoma + islet-cell carcinoma, dosed 103 weeks, study length 104 weeks): 414 mg/kg/day
TD50 (rat, strain Fischer 344, males, in feed, site: pancreatic islets, lesion: islet-cell adenoma, dosed 103 weeks, study length 104 weeks): 810 mg/kg/day
TD50 (rat, strain Fischer 344, males, in feed, site: subcutaneous tissue, lesion: sarcoma, NOS, dosed 103 weeks, study length 104 weeks): 1830 mg/kg/day
TD50 (rat, strain Fischer 344, males, in feed, site: testis, lesion: interstitial-cell tumor, dosed 103 weeks, study length 104 weeks): 100 mg/kg/day
TD50 (rat, strain Fischer 344, males, in feed, site: thyroid gland, lesion: c-cell adenoma + c-cell carcinoma, dosed 103 weeks, study length 104 weeks): 474 mg/kg/day
TD50 (rat, strain Fischer 344, males, in feed, site: thyroid gland, lesion: c-cell adenoma, dosed 103 weeks, study length 104 weeks): 529 mg/kg/day
TD50 (rat, strain Fischer 344, males, in feed, site: urinary bladder, lesion: leiomyosarcoma + leiomyoma + squamous-cell carcinoma + squamous-cell papilloma + transitional-cell carcinoma + transitional-cell p, dosed 103 weeks, study length 104 weeks): 89.3 mg/kg/day
TD50 (rat, strain Fischer 344, males, in feed, site: urinary bladder, lesion: leiomyosarcoma + leiomyoma, dosed 103 weeks, study length 104 weeks): 129 mg/kg/day
TD50 (rat, strain Fischer 344, males, in feed, site: urinary bladder, lesion: leiomyosarcoma, dosed 103 weeks, study length 104 weeks): 131 mg/kg/day
TD50 (rat, strain Fischer 344, males, in feed, site: urinary bladder, lesion: squamous-cell carcinoma + squamous-cell papilloma, dosed 103 weeks, study length 104 weeks): 803 mg/kg/day
TD50 (rat, strain Fischer 344, males, in feed, site: urinary bladder, lesion: squamous-cell papilloma, dosed 103 weeks, study length 104 weeks): 1260 mg/kg/day
TD50 (rat, strain Fischer 344, males, in feed, site: urinary bladder, lesion: transitional-cell carcinoma + transitional-cell papilloma, dosed 103 weeks, study length 104 weeks): 245 mg/kg/day
TD50 (rat, strain Fischer 344, males, in feed, site: urinary bladder, lesion: transitional-cell carcinoma, dosed 103 weeks, study length 104 weeks): 506 mg/kg/day
TD50 (rat, strain Fischer 344, males, in feed, site: urinary bladder, lesion: transitional-cell papilloma, dosed 103 weeks, study length 104 weeks): 370 mg/kg/day

CCOC(=O)N(C)N=O
TD50 (hamster, strain Syrian Golden, both sexes, by gavage, site: esophagus, lesion: epidermoid carcinoma, dosed 27 weeks, study length 73 weeks): 0.127 mg/kg/day
carcinogen call (hamster, strain Syrian Golden, both sexes, by gavage, site: forestomach, lesion: epidermoid carcinoma, dosed 27 weeks, study length 73 weeks): positive

Cc1c(C)c2c(c(C)c1O)CCC(C)(CCCC(C)CCCC(C)CCCC(C)C)O2 (stereo unspecified)
carcinogen call (rat, strain F344/DuCrj, females, in feed, site: colon, lesion: one or several types, types not named, dosed 54 weeks, study length 54 weeks): negative (inactive)
carcinogen call (rat, strain F344/DuCrj, females, in feed, site: mammary gland, lesion: one or several types, types not named, dosed 54 weeks, study length 54 weeks): negative (inactive)
carcinogen call [1]: negative (inactive)
carcinogen call [2]: negative (inactive)
carcinogen call [3]: negative (inactive)

Nc1cnn([C@@H]2O[C@H](CO)[C@@H](O)[C@H]2O)c(=O)n1
carcinogen call (rat, strain Fischer 344, males, i.p., site: any site (literature study), lesion: one or several types, types not named, dosed 52 weeks, study length 52 weeks): negative (inactive)

CCCOC(=O)c1cc(O)c(O)c(O)c1
TD50 (mouse, strain B6C3F1, females, in feed, site: liver, lesion: hepatocellular adenoma + hepatocellular carcinoma + neoplastic nodule, dosed 103 weeks, study length 105 weeks): 21400 mg/kg/day
TD50 (mouse, strain B6C3F1, females, in feed, site: liver, lesion: hepatocellular adenoma, dosed 103 weeks, study length 105 weeks): 8260 mg/kg/day (inactive)
TD50 (mouse, strain B6C3F1, females, in feed, site: lung, lesion: alveolar/bronchiolar adenoma + alveolar/bronchiolar carcinoma, dosed 103 weeks, study length 105 weeks): 44300 mg/kg/day
TD50 (mouse, strain B6C3F1, males, in feed, site: all sites, lesion: lymphoma, histiocytic type, dosed 103 weeks, study length 105 weeks): 15100 mg/kg/day
TD50 (mouse, strain B6C3F1, males, in feed, site: all sites, lesion: lymphoma, dosed 103 weeks, study length 105 weeks): 6540 mg/kg/day (inactive)
TD50 (mouse, strain B6C3F1, males, in feed, site: all sites, lesion: malignant lymphoma, dosed 103 weeks, study length 105 weeks): 12100 mg/kg/day
TD50 (mouse, strain B6C3F1, males, in feed, site: any site (literature study), lesion: several types, types named in the paper, dosed 103 weeks, study length 105 weeks): 3640 mg/kg/day
TD50 (mouse, strain B6C3F1, males, in feed, site: lung, lesion: alveolar/bronchiolar adenoma + alveolar/bronchiolar carcinoma, dosed 103 weeks, study length 105 weeks): 55600 mg/kg/day
carcinogen call [1]: negative (inactive)
carcinogen call [2]: negative (inactive)
carcinogen call [3]: negative (inactive)
TD50 (rat, strain Fischer 344, females, in feed, site: mammary gland, lesion: adenoma, dosed 103 weeks, study length 105 weeks): 8080 mg/kg/day (inactive)
TD50 (rat, strain Fischer 344, males, in feed, site: adrenal gland, lesion: pheochromocytoma + pheochromocytoma, malignant, dosed 103 weeks, study length 105 weeks): 613 mg/kg/day
TD50 (rat, strain Fischer 344, males, in feed, site: adrenal gland, lesion: pheochromocytoma, dosed 103 weeks, study length 105 weeks): 613 mg/kg/day
TD50 (rat, strain Fischer 344, males, in feed, site: pancreatic islets, lesion: islet-cell adenoma + islet-cell carcinoma, dosed 103 weeks, study length 105 weeks): 840 mg/kg/day
TD50 (rat, strain Fischer 344, males, in feed, site: pancreatic islets, lesion: islet-cell adenoma, dosed 103 weeks, study length 105 weeks): 749 mg/kg/day (inactive)
TD50 (rat, strain Fischer 344, males, in feed, site: preputial gland, lesion: adenocarcinoma + adenoma + carcinoma, dosed 103 weeks, study length 105 weeks): 1040 mg/kg/day
TD50 (rat, strain Fischer 344, males, in feed, site: thyroid gland, lesion: follicular-cell adenoma + follicular-cell carcinoma, dosed 103 weeks, study length 105 weeks): 6870 mg/kg/day
